According to article PMC6143478, “Lipophilic activated ester prodrug approach for drug delivery to the intestinal lymphatic system” (Journal of Controlled Release, 2018):
Read-outs that look alike come from different tables or passages of the source.

What was measured:
[1] = Prodrug conversion assay in rat plasma; format: in vitro ADME
Method: The prodrugs were tested for their stability and conversion into their corresponding active drug using fasted state simulated intestinal fluid (FaSSIF) with added esterase enzyme activity (20 IU/mL), rat plasma, and postprandial rat lymph. The FaSSIF was prepared as previously described in the literature. The medium was pre-heated to 37 °C prior to the assay for 5 min. The experiment was initiated by spiking stock solutions of prodrugs to give a final concentration of 10 μM of the prodrugs in the medium. When the stability of the artificial emulsion-associated prodrugs was tested in plasma, the association of compounds with artificial emulsion was performed prior to stability experiments and the concentrations of the compounds in the associated emulsion were measured. The emulsion was then spiked to give a concentration of 10 μM of the prodrugs in plasma. The reaction mixtures were incubated at 37 °C and shaken at 200 rpm on a temperature-controlled orbital shaker (Thermo Scientific MaxQ4000, Waltham, MA, USA) for 4 h. Samples were withdrawn at pre-determined time points, and the reaction was terminated by addition of acetonitrile. The samples were then subjected to sample preparation and analysis as described below. The natural log percentage of the prodrug concentration was plotted against incubation time, and the slope (k) was obtained from the plot. Half-life of active drug release (t1/2) was calculated by the following equation: t1/2 = −0.693/k. All experiments were conducted in triplicate.

[2] = test system: human chylomicrons (CM); experiment: Ex vivo association with human plasma-derived chylomicrons; format: in vitro ADME; details: 1.755 μM, 37 °C, 1 h; in words, relative to parent drug
From the text: The protocol for preparation of human plasma-derived CM emulsion was approved by the Faculty of Medicine and Health Sciences Research Ethics Committee, Queens Medical Centre, Nottingham University Hospitals (BT12102015 CBS SoP). Healthy male volunteers of 19–40 years old and with body mass index of 18.5–25.0 were enrolled in the study after providing informed consent. The participants were excluded if any medication was used within one week prior to enrolment. On the morning of the study, participants received a high-fat meal (equivalent to a full English breakfast). Between 3 and 4 h following breakfast, 30 mL of blood was collected using heparinised tubes (Vacutainer® Blood Collection Tubes) and centrifuged (800 g, 10 min, 15 °C) to obtain plasma.
CM separation was performed as previously reported with minor modifications. Briefly, KBr (0.57 g) was mixed with 4 mL of plasma to yield density of 1.1 g/mL. PBS with densities of 1.006, 1.019, and 1.063 g/mL were prepared by adding appropriate amounts of KBr. These PBS of different densities were layered on top of the plasma to build density gradient layers in polyallomer ultracentrifuge tubes. The samples were then centrifuged at 268,350 g for 35 min at 15 °C using an ultracentrifuge (SORVALL® TH-641 Rotor, Thermo Fisher Scientific, UK). Following ultracentrifugation, approximately 1 mL of the upper layer containing CM was collected. TG concentration of CM emulsion was assessed using the TG enzymatic kit (Sigma Aldrich, Dorset, UK). TG concentration of the emulsion was adjusted to 100 mg/dL by diluting with PBS of 1.006 g/mL density. The CM emulsion was stored at 4 °C until the association assay (˂24 h).
The association of the compounds with artificial lipid particle emulsion and human CM was assessed using previously reported methodology with minor modifications. Briefly, 1 mL of artificial lipid particle or CM emulsions (TG concentration 100 mg/dL) was used for the association assay. The emulsion was spiked with stock solutions of tested compounds (in acetonitrile) to give a final concentration of 1.755 μM. The reaction mixtures were incubated at 37 °C for 1 h with magnetic stirring at 300 rpm. Following the incubation, density gradient ultracentrifugation was applied as described above to isolate the artificial lipid particles or CM associated with the tested compounds from the rest of the experimental medium. All experiments were conducted in quintuplicates or above.

[3] = Biodistribution to mesenteric lymph nodes (MLN) and lymph following oral administration in rats; format: in vivo; details: dose equivalent to 10 mg/kg BEX, rat; for Kp: male, Sprague Dawley, intact prodrug
Method: The protocols for pharmacokinetic and biodistribution experiments in this study were reviewed and approved by the University of Nottingham Ethical Review Committee in accordance with the Animals [Scientific Procedures] Act 1986. Male Sprague Dawley rats (Charles River Laboratories, UK) weighing 350–380 g were used. The animals were housed in the Bio Support Unit, University of Nottingham. Continuous lymph collection was performed according to a protocol approved by the Institutional Animal Care and Use Committee at Rutgers, The State University of New Jersey. Male Sprague Dawley rats (Envigo, Inc., NJ, USA) weighing 300–350 g were used for the continuous lymph collection. Animals were allowed free access to food and water and were acclimatised for at least 6 days prior to any procedures at both institutions in a controlled-temperature environment with 12 h light/dark cycles.
Formulations were prepared as described in the above pharmacokinetic study and were delivered by an oral gavage. Animals were euthanised at pre-determined time points. Blood was collected from the posterior vena cava and lymph samples were taken from the mesenteric lymph duct. MLNs were dissected and collected as previously described. The MLNs were isolated from surrounding tissue with care not to compromise the integrity of the lymph nodes. The MLNs were homogenised (POLYTRON® PT 10–35 GT, Kinematica AG, Luzern, Switzerland) with 10 mg/mL NaF in water (1,2, w/v) on an ice bath prior to sample preparation for HPLC analysis.
A combination of protein precipitation and liquid-liquid extraction was applied to samples prior to HPLC injection. To 100 μL sample, 300 μL of acetonitrile was added for protein precipitation and then 300 μL of pH modifier was added when necessary (Supplementary Material Table S2). […] The organic layer was separated and evaporated under N2 gas. Reconstitution solvent (100 μL) was used as detailed in Supplementary Material Table S2 and 40 μL was injected into the HPLC-UV system. […] Therefore, storage and preparation of all samples were performed within the time frame and conditions of confirmed stability.
The HPLC-UV system consisting of a separation module (Waters Alliance 2695) equipped with a UV detector (Waters 996) was used for analysis. Samples in the autosampler were maintained at 4 °C and the column at 40 °C. The stationary and mobile phases were used as specified in Supplementary Material Table S2. BEX and its prodrugs were detected at 259 nm and RA and its prodrugs at 357 nm.

Q: With `C=C(c1ccc(C(=O)OCC)cc1)c1cc2c(cc1C)C(C)(C)CCC2(C)C` [prodrug 2] as the compound, how does the “conversion of emulsion-associated form of prodrug in rat plasma” value ([1]; prodrug incorporated into Intralipid lipid particles, 10 μM, relative to free form) read?
A: delayed conversion

Q: What about the half-life at 10 μM ([1]; rat, plasma, in vitro, 37 °C, free form, read-out: half-life of active drug release in rat plasma) of the same compound?
A: 20 min

Q: And the “association with human chylomicrons (CM)” value [2]?
A: equally high affinity to CM

Q: What about the “concentrations of BEX in intestinal lymphatics (MLNs, lymph) relative to plasma” value ([3]; BEX analyte, in words) of the same compound?
A: comparable between the three matrices

Q: And the Kp ([3]; mesenteric lymph / plasma, read-out: concentration of prodrug in lymph compared to plasma)?
A: 41

Q: What about the Kp ([3]; mesenteric lymph nodes (MLN) / plasma, read-out: concentration of prodrug in MLNs compared to plasma) of the same compound?
A: 6
